Test results taken from PMC9159852, “Synthesis, Structure, and Biologic Activity of Some Copper, Nickel, Cobalt, and Zinc Complexes with 2-Formylpyridine N^4-Allylthiosemicarbazone” (Bioinorganic Chemistry and Applications, 2022).
Where two headings read alike, the source gives them in different places.

What was measured:
Daphnia magna = assay: Acute toxicity assay against Daphnia magna; details: 24 h exposure; for LC50: Daphnia magna
Method: (§1) The general toxicity of the tested compounds was evaluated using Daphnia magna (Straus, 1820). Daphnia magna was originated from a culture maintained parthenogenetically at the Institute of Zoology (Laboratory of Systematics and Molecular Phylogeny).
(§2) The test design was based on ISO 6341 : 2012. The test-organisms Daphnia magna Straus were fed with Chlorella vulgaris. These unicellular algae were grown using aseptic technology to exclude contamination of the culture by bacteria, algae or protozoa. Chlorella vulgaris were cultivated in Prat's growth medium containing KNO3 (1 μM), MgSO4·7H2O (40 μM), K2HPO4·3H2O (400 μM), FeCl3·6H2O (3.6 μM) in H2O distilled (adjusted the pH to 7.0, autoclaved and stored at 5°C).
(§3) D. magna was maintained in aerated aqueous straw infusion growth media supplemented with CaCl2 ([…]), NaHCO3 (2.59 g/L), KCl (0.23 g/L), and MgSO4, 7H2O (4.93 g/L). (pH∼7.5 ± 0.2; O2 ≥ 6.0 mg/L).
(§4) Juveniles were selected according to their size and kept in fresh medium for 24 h. D. magna was cultured in Costar® 24-well culture clear sterile multiple well plates covered by a lid to prevent the possibility of contamination and evaporation but at the same time to allow gaseous exchange between air and culture medium. Each well contained 10 daphnids in 1000 μL final volume of each dilution of the tested compounds.
(§5) The bioassay was then repeated at the concentrations ranging from 0.1 to 100 μM (0.1, 1, 10, and 100 μM) in order to determine LC50 for each compound, including doxorubicin (the positive control). Aqueous straw infusion growth media was used to dilute the stock solutions to the required concentrations. […] A 0.1% solution of DMSO in aerated medium (pH∼7.5 ± 0.2; O2 ≥ 6.0 mg/L) was used as a negative control. Throughout the experiment, the juvenile daphnids were incubated at 22 ± 2 °C, using a 16 h/8 h light/dark cycle (500–1000 lx). The mobility (viability) of the test organisms was observed after the 24-h exposure. The experiment was performed in triplicate.
(§6) The percentage of viability (V (%)) of Daphnia magna was calculated according to the formula:(1) V%=Nsample/Ncontrol×100.
(§7) N - Number of viability of Daphnia magna.
(§8) The compounds median lethal concentration that kills 50% of the juvenile daphnids (LC50) values were calculated from the dose-response equation determined by the least squares fit method.

[1] = tested on: Candida albicans (ATCC 10231); assay: Antifungal activity, serial dilutions in liquid broth, C. albicans; assay type: cell-based
Method: (§9) Antibacterial and antifungal properties of the studied substances were determined on a series of standard strains of Gram-positive microorganisms (Staphylococcus aureus (ATCC 25923)), Gram-negative microorganisms (Escherichia coli (ATCC 25922)), and fungi (Candida albicans (ATCC 10231)) using the method of serial dilutions in liquid broth. Stock solutions of the studied compounds as well as the reference compounds (furacillinum and nystatin) were prepared by dissolving 10 mg of the corresponding compound in 1 mL of DMSO. After that, the starting solutions (1 mg/mL) were prepared by tenfold dilution of the stock solution with nutrition medium (2% of peptonate bullion). The next dilutions were prepared by serial double dilution with the nutrition medium.

[2] = tested on: human epithelial pancreatic adenocarcinoma (BxPC-3) cell line; assay: Antiproliferative activity (MTS and Resazurin assays), BxPC-3; assay type: cell-based; details: for SI (selectivity index): IC50(MDCK)/IC50(BxPC-3)
Method: (§10) The antiproliferative activity of the studied substances was determined toward a series of cancer cell lines (HL-60 (ATCC CCL-240), BxPC-3 (ATCC CRL-1687), HeLa (ATCC CCL-2), RD (ATCC CCL-136)), and a normal cell line (MDCK (ATCC CCL-34)). These cell lines were cultured in accordance with the previously described method. Determination of the number of viable cells after cultivation in the presence of various concentrations of the studied substances was carried out by the MTS and Resazurin assays according to the previously described method. The 10-mM stock solutions of the studied compounds as well as the reference compound (doxorubicin) were prepared by dissolving 10 μmol of the corresponding compound in 1 mL of DMSO. The 0.1, 1, 10, and 100 μM solutions were prepared by dilution of the stock solutions with the corresponding medium and used for the study of antiproliferative activity.

[3] = tested on: human muscle rhabdomyosarcoma (RD) cell line; assay: Antiproliferative activity (MTS and Resazurin assays), RD; assay type: cell-based; details: for SI (selectivity index): IC50(MDCK)/IC50(RD); for IC50: RD
Method: as §10

[4] = tested on: human leukemia HL-60 cell line; assay: Antiproliferative activity (MTS and Resazurin assays), HL-60; assay type: cell-based; details: for IC50: HL-60, Table 3; for SI (selectivity index): IC50(MDCK)/IC50(HL-60); for inhibition at 0.1 µM / inhibition at 1 µM / inhibition at 10 µM: read-out: Inhibition of cell proliferation, (%)
Method: as §10

[5] = tested on: Staphylococcus aureus (ATCC 25923); assay: Antibacterial activity, serial dilutions in liquid broth, S. aureus; assay type: cell-based; details: S. aureus (G+)
Method: as §9

[6] = tested on: normal kidney epithelial (MDCK) cell line; assay: Antiproliferative activity (MTS and Resazurin assays), MDCK normal cell line; assay type: cell-based
Method: as §10

[7] = tested on: human cervical epithelial (HeLa) cell line; assay: Antiproliferative activity (MTS and Resazurin assays), HeLa; assay type: cell-based; details: for IC50: HeLa; for SI (selectivity index): IC50(MDCK)/IC50(HeLa)
Method: as §10

[8] = Antiradical activity, ABTS•+ method; details: read-out: IC50 toward ABTS•+ radical cation
Method: The ABTS^•+ method was applied for the determination of antiradical activity of the studied substances. Standard solutions of ABTS^•+ radical cations and tested substances as well as the conditions of spectrophotometric measurements and calculations of inhibition were made as described. The 10-mM stock solutions of the studied compounds as well as the reference compound (trolox) were prepared by dissolving 10 μmol of the corresponding compound in 1 mL of DMSO. The 1, 10, 100, and 1000 μM solutions were prepared by the dilution of stock solutions with DMSO. After that, 20 μL of each tested compound solutions was transferred in a 96-well microtiter plate, and 180 μL of ABTS^•+ working solution was added to receive solutions with final concentrations of tested compounds 0.1, 1, 10, and 100, respectively.

[9] = tested on: Escherichia coli (ATCC 25922); assay: Antibacterial activity, serial dilutions in liquid broth, E. coli; assay type: cell-based; details: E. coli (G-)
Method: as §9

[10] = Acute toxicity assay against Daphnia magna; details: Daphnia magna, in vivo, pH 7.5
Method: as §1, §2, §3, §4, §5, §6, §7, §8

[11] = other: exposure in the test medium (immersion)

Row | Structure (SMILES) | V, (%) percentage of viability of Daphnia magna (Daphnia magna; 0.1 μM) | V, (%) percentage of viability of Daphnia magna (Daphnia magna; 1 μM) | V, (%) percentage of viability of Daphnia magna (Daphnia magna; 10 μM) | V, (%) percentage of viability of Daphnia magna (Daphnia magna; 100 μM) | LC50 (Daphnia magna) | MIC [1] | IC50 ([2]; BxPC-3) | SI (selectivity index) [2] | SI (selectivity index) [3] | IC50 [3] | Inhibition of cell proliferation, (%) ([4]; HL-60, 0.1 μM) | Inhibition of cell proliferation, (%) ([4]; HL-60, 1 μM) | Inhibition of cell proliferation, (%) ([4]; HL-60, 10 μM) | IC50 [4] | SI (selectivity index) [4] | MBC [5] | MIC [5] | IC50 [6] | IC50 [7] | IC50 [8] | other results
1 | C=CCNC(=S)NN=Cc1ccccn1.C=CCNC(=S)NN=Cc1ccccn1.O.[Cl-].[Cl-].[Ni+2] [compound 5, [Ni(HL)2]Cl2·H2O] | 102.6 ± 0.0% | 102.6 ± 0.0% | 97.4 ± 7.3% | 87.2 ± 7.3% | > 100 µM | 500 µg/mL | 3.6 ± 0.9 µM | >27 | >34 | 2.9 ± 0.4 µM | 54.5 ± 1.1% | 94.9 ± 0.7% | 108.5 ± 0.5% | 0.09 ± 0.01 µM | >1000 | 31.3 µg/mL | 15.6 µg/mL | > 100 µM | > 100 µM | 8.6 ± 0.1 µM | Effect on growth and proliferation of normal MDCK cell line (in words) [6]: practically do not affect the growth and proliferation; MIC [9]: 1000 µg/mL
2 | C=CCNC(=S)N/N=C/c1cccnc1 [HL^a] |  |  |  |  |  |  |  |  |  |  |  |  |  |  |  |  |  |  |  |  | inhibition at 0.1 µM ([4]; Homo sapiens, HL-60, 0.1 μM): 0.9 ± 0.2%; inhibition at 1 µM ([4]; Homo sapiens, HL-60, 1 μM): 1.5 ± 0.5%; inhibition at 10 µM ([4]; Homo sapiens, HL-60, 10 μM): 6.1 ± 0.3%
3 | C=CCNC([S-])=NN=Cc1ccccn1.C=CCNC([S-])=NN=Cc1ccccn1.[Cl-].[Co+3] [compound 6, [Co(L)2]Cl] | 97.4 ± 7.3% | 97.4 ± 7.3% | 92.3 ± 0.0% | 35.9 ± 7.3% | 65.4 ± 11.8 µM | 62.5 µg/mL | 4.1 ± 0.5 µM | >24 |  | > 100 µM | 4.1 ± 0.3% | 6.9 ± 1.7% | 24.1 ± 0.6% | > 10 µM |  | 125 µg/mL | 62.5 µg/mL | > 100 µM | 2.5 ± 0.5 µM | > 100 µM | MFC [1]: 250 µg/mL; Effect on growth and proliferation of normal MDCK cell line (in words) [6]: practically do not affect the growth and proliferation; SI (selectivity index) [7]: >40; MBC [9]: 500 µg/mL; MIC [9]: 250 µg/mL
4 | C=CCNC(=NN=Cc1ccccn1)[S][Cu][Br] [compound 3, [Cu(L)Br]] | 102.6 ± 0.0% | 97.4 ± 7.3% | 0.0% | 0.0% | 3.5 ± 2.8 µM | 7.81 µg/mL | 0.06 ± 0.01 µM | 103 | 31 | 0.2 ± 0.1 µM | 24.5 ± 1.9% | 100.0 ± 0.3% | 100.0 ± 0.1% | 0.1 ± 0.04 µM | 62 | 0.488 µg/mL | 0.244 µg/mL | 6.2 ± 1.4 µM | 0.3 ± 0.03 µM | 43 ± 2.1 µM | MFC [1]: 15.6 µg/mL; SI (selectivity index) [7]: 21; MBC [9]: 15.6 µg/mL; MIC [9]: 7.81 µg/mL
5 | COc1cccc2c1C(=O)c1c(O)c3c(c(O)c1C2=O)C[C@@](O)(C(=O)CO)C[C@@H]3O[C@H]1C[C@H](N)[C@H](O)[C@H](C)O1 [Doxorubicin, doxorubicin, reference compound] |  |  |  |  |  |  |  | 1.9 | 0.44 |  |  |  |  |  | 35.5 |  |  |  |  |  | viability at 24 h, 0.1 µM [10, 11]: 87.2 ± 7.3%; viability at 24 h, 1 µM [10, 11]: 76.9 ± 7.3%; viability at 24 h, 10 µM [10, 11]: 25.6 ± 7.3%; viability at 24 h, 100 µM [10, 11]: 0%; LC50 at 24 h [10]: 3.3 ± 1.1 µM; IC50 ([2]; Homo sapiens, BXPC-3): 3.7 ± 0.3 µM; IC50 ([3]; Homo sapiens): 16.2 ± 0.6 µM; inhibition at 0.1 µM ([4]; Homo sapiens, HL-60, 0.1 μM): 16.5 ± 1.8%; inhibition at 1 µM ([4]; Homo sapiens, HL-60, 1 μM): 92.9 ± 0.7%; inhibition at 10 µM ([4]; Homo sapiens, HL-60, 10 μM): 95 ± 0.6%; IC50 ([4]; Homo sapiens): 0.2 ± 0.1 µM; IC50 ([6]; Canis lupus familiaris): 7.1 ± 0.3 µM; IC50 ([7]; Homo sapiens): 10 ± 0.4 µM; SI (selectivity index) [7]: 0.71
